Like-named read-outs stand apart in the source and are kept apart here.
Legend:
Test in all cases: cell-based
hNav1.5 = hNav1.5 (Homo sapiens, UniProt Q14524); conditions: read-out: IC50 (μM) Nav1.5
hNav1.4 = hNav1.4 (Homo sapiens, UniProt P35499); type: cell-based; conditions: for IC50: read-out: IC50 (μM) Nav1.4; for Nav1.4/Nav1.7: ratio of IonWorks Quattro IC50 values
hNav1.3 = hNav1.3 (Homo sapiens, UniProt Q9NY46); conditions: read-out: IC50 (μM) Nav1.3
hNav1.7 = hNav1.7 (Homo sapiens, UniProt Q15858); conditions: for IC50: read-out: IC50 (μM) Nav1.7
hNav1.7, sequence (Q15858 whole entry): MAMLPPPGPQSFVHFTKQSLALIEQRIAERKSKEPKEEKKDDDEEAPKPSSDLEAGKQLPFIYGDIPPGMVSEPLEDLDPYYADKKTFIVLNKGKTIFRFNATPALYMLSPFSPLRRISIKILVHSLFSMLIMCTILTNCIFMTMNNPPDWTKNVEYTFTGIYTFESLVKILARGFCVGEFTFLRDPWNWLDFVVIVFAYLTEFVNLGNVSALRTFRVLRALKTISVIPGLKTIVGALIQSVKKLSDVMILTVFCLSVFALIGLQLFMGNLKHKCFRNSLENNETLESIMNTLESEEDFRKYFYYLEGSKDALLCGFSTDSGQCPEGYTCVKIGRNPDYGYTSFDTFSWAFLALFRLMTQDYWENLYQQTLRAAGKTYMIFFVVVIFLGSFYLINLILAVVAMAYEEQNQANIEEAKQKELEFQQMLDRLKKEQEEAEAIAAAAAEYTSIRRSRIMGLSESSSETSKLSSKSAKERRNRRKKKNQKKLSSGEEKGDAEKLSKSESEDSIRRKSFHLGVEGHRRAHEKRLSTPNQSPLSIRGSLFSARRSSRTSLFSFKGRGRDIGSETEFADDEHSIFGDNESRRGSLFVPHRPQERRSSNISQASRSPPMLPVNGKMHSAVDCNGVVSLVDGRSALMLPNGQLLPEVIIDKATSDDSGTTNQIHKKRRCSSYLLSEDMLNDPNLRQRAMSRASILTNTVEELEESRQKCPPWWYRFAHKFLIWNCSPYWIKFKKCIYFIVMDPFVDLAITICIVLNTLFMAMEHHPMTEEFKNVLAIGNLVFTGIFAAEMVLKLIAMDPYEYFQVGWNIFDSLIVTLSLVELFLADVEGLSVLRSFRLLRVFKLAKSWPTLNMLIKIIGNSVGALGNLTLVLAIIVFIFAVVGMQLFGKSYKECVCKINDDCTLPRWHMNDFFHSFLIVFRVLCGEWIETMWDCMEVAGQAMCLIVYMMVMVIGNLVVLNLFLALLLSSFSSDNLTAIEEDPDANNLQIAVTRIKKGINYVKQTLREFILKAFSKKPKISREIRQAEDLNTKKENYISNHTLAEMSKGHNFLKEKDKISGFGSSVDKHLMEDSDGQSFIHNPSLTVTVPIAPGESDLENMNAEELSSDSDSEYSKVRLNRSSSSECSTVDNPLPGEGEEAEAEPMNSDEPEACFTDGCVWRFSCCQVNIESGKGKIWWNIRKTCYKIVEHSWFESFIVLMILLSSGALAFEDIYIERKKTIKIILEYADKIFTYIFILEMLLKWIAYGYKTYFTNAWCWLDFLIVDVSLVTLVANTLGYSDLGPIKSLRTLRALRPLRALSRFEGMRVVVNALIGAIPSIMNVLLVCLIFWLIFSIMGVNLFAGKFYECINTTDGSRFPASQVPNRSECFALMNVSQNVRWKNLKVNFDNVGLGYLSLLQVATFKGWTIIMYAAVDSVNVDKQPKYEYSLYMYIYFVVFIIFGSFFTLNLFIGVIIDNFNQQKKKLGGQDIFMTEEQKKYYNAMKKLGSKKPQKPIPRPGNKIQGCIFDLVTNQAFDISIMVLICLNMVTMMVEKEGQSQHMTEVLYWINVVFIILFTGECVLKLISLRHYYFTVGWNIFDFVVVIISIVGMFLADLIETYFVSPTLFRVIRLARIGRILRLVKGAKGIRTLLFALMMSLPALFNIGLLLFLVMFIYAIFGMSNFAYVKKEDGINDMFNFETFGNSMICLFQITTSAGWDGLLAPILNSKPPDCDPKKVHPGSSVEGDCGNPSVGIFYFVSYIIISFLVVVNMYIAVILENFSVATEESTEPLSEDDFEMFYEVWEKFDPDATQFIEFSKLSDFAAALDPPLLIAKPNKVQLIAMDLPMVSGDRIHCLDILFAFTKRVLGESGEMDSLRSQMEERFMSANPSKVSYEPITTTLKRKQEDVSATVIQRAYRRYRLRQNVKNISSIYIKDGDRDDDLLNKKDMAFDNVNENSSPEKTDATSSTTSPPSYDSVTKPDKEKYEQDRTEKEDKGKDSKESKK

hNav1.5, sequence (Q14524 whole entry): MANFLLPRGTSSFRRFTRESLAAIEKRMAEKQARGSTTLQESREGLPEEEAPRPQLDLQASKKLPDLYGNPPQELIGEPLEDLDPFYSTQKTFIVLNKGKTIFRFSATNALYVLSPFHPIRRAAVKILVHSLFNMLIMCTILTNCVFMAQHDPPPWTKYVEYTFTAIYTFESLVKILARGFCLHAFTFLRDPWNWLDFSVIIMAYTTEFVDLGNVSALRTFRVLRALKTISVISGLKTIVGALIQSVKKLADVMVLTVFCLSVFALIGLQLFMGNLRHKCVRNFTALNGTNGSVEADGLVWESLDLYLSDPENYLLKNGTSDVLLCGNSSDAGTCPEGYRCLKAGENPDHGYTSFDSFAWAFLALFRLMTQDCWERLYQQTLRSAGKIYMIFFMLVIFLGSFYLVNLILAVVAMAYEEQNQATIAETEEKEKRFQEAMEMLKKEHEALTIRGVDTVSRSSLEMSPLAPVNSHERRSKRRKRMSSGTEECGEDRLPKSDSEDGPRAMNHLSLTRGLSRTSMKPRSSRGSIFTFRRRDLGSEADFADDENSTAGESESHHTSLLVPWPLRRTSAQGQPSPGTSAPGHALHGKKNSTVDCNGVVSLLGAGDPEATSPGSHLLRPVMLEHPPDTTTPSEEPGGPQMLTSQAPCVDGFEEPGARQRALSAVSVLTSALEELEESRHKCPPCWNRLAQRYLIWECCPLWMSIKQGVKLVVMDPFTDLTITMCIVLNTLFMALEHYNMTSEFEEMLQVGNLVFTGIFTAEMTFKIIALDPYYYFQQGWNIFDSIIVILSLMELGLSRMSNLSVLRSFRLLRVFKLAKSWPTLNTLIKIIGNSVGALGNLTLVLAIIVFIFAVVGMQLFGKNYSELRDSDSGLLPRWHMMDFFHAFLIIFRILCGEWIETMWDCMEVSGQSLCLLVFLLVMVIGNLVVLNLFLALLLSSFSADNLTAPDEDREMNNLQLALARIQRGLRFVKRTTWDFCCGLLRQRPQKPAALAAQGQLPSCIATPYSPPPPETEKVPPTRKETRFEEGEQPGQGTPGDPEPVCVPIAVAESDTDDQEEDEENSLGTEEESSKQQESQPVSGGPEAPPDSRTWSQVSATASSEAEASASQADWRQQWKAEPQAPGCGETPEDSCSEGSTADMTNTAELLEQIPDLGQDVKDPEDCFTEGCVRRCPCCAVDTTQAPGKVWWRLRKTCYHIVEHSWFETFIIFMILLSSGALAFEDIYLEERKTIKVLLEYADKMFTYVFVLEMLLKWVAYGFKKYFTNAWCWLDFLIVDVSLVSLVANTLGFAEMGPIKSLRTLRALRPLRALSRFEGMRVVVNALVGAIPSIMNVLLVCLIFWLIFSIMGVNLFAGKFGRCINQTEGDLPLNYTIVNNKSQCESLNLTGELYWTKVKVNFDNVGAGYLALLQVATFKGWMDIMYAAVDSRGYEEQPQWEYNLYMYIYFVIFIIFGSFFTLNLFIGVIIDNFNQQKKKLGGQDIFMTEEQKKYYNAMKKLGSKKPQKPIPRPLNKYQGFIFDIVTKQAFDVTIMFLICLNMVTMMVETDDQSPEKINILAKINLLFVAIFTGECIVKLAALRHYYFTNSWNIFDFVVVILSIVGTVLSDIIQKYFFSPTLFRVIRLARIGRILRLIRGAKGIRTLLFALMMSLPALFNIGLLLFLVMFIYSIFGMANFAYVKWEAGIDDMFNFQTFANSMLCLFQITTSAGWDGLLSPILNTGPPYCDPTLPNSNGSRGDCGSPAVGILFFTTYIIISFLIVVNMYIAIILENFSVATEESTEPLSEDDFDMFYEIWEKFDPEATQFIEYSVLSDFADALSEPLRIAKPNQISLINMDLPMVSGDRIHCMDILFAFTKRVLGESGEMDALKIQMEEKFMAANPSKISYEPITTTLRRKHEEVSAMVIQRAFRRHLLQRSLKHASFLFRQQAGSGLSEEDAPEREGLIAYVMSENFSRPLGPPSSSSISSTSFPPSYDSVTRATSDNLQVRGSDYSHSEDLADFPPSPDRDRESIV

| Structure (SMILES) | IC50 (hNav1.5; IonWorks Quattro, Table 6) [µM] | IC50 (hNav1.4; IonWorks Quattro, Table 6) [µM] | Nav1.4/Nav1.7 (hNav1.4; Table 6) | IC50 (hNav1.3; IonWorks Quattro, Table 6) [µM] | IC50 (hNav1.7) [µM] | IC50 (hNav1.5; IonWorks Quattro, Table 9) [µM] | IC50 (hNav1.4; IonWorks Quattro, Table 9) [µM] | IC50 (hNav1.3; IonWorks Quattro, Table 9) [µM] | IC50 (hNav1.7; IonWorks Quattro, […]) [µM] | IC50 (hNav1.5) [µM] | IC50 (hNav1.4) [µM] | IC50 (hNav1.3) [µM] | Nav1.4/Nav1.7 (hNav1.7; ratio of IonWorks Quattro IC50 values, Nav1.4 over Nav1.7) |
| --- | --- | --- | --- | --- | --- | --- | --- | --- | --- | --- | --- | --- | --- |
| CC[C@H](C)[C@H](NC(=O)[C@H](Cc1cccc2ccccc12)NC(=O)[C@H](CCCCN)NC(=O)[C@H](CCCNC(=N)N)NC(=O)[C@@H]1CSSC[C@@H]2NC(=O)[C@H](C)NC(=O)[C@H](CCCNC(=N)N)NC(=O)[C@H](CCCCN)NC(=O)[C@H](CO)NC(=O)[C@H](CC(=O)O)NC(=O)[C@@H]3CSSC[C@H](NC(=O)[C@H](CCCNC(=N)N)NC(=O)[C@H](CC(C)C)NC(=O)CNC(=O)[C@H](CCC(=O)O)NC(=O)[C@H](CSSC[C@H](NC(=O)[C@@H](N)Cc4ccc(O)cc4)C(=O)N[C@@H](CCC(N)=O)C(=O)N[C@@H](CCCCN)C(=O)N[C@@H](Cc4c[nH]c5ccccc45)C(=O)N[C@@H](CCSC)C(=O)N[C@@H](Cc4c[nH]c5ccccc45)C(=O)N[C@@H]([C@@H](C)O)C(=O)N3)NC2=O)C(=O)N[C@@H](CCCCN)C(=O)N[C@@H](CC(C)C)C(=O)N[C@@H](Cc2c[nH]c3ccccc23)C(=O)N1)C(N)=O [compound 46] | 3.6 | 0.1 | 17 | 0.06 | 0.006 | – | – | – | – | – | – | – | – |
| CC[C@H](C)[C@H](NC(=O)[C@@H](NC(=O)[C@H](CCCCN)NC(=O)[C@H](CCCNC(=N)N)NC(=O)[C@@H]1CSSC[C@@H]2NC(=O)[C@H](C)NC(=O)[C@H](CCCNC(=N)N)NC(=O)[C@H](CCCCN)NC(=O)[C@H](CO)NC(=O)[C@H](CC(=O)O)NC(=O)[C@@H]3CSSC[C@H](NC(=O)[C@H](CCCNC(=N)N)NC(=O)[C@H](CC(C)C)NC(=O)[C@H](C)NC(=O)[C@H](CCC(=O)O)NC(=O)[C@H](CSSC[C@H](NC(=O)[C@@H](N)Cc4ccc(O)cc4)C(=O)N[C@@H](CCC(N)=O)C(=O)N[C@@H](CCCCN)C(=O)N[C@@H](Cc4c[nH]c5ccccc45)C(=O)N[C@@H](CCSC)C(=O)N[C@@H](Cc4c[nH]c5ccccc45)C(=O)N[C@@H]([C@@H](C)O)C(=O)N3)NC2=O)C(=O)N[C@@H](CCCCN)C(=O)N[C@@H](CC(C)C)C(=O)N[C@@H](Cc2c[nH]c3ccccc23)C(=O)N1)[C@@H](C)CC)C(N)=O [compound 15] | > 5 | 0.26 | 7 | 0.24 | 0.04 | – | – | – | – | – | – | – | – |
| CC[C@H](C)[C@H](NC(=O)[C@@H](NC(=O)[C@H](CCCCN)NC(=O)[C@H](CCCNC(=N)N)NC(=O)[C@@H]1CSSC[C@@H]2NC(=O)[C@H](C)NC(=O)[C@H](CCCNC(=N)N)NC(=O)[C@H](CCCCN)NC(=O)[C@H](CO)NC(=O)[C@H](CC(=O)O)NC(=O)[C@@H]3CSSC[C@H](NC(=O)[C@H](CCCNC(=N)N)NC(=O)[C@H](CC(C)C)NC(=O)CNC(=O)[C@H](CCC(=O)O)NC(=O)[C@H](CSSC[C@H](NC(=O)[C@@H](N)Cc4ccc(O)cc4)C(=O)N[C@@H](CCC(N)=O)C(=O)N[C@@H](CCCCN)C(=O)N[C@@H](Cc4c[nH]c5ccccc45)C(=O)N[C@@H](CCSC)C(=O)N[C@@H](Cc4c[nH]c5ccccc45)C(=O)N[C@@H]([C@@H](C)O)C(=O)N3)NC2=O)C(=O)N[C@@H](CCCCN)C(=O)N[C@@H](CCCCN)C(=O)N[C@@H](Cc2c[nH]c3ccccc23)C(=O)N1)[C@@H](C)CC)C(N)=O [compound 85] | 4.1 | 0.29 | 1 | 0.14 | 0.24 | – | – | – | – | – | – | – | – |
| CC[C@H](C)[C@H](NC(=O)[C@@H](NC(=O)[C@H](CCCCN)NC(=O)[C@H](CCCNC(=N)N)NC(=O)[C@@H]1CSSC[C@@H]2NC(=O)[C@H](C)NC(=O)[C@H](CCCNC(=N)N)NC(=O)[C@H](CCCCN)NC(=O)[C@H](CO)NC(=O)[C@H](CC(=O)O)NC(=O)[C@@H]3CSSC[C@H](NC(=O)[C@H](CCCNC(=N)N)NC(=O)[C@H](CC(C)C)NC(=O)CNC(=O)[C@H](CCC(=O)O)NC(=O)[C@H](CSSC[C@H](NC(=O)[C@@H](N)Cc4ccc(O)cc4)C(=O)N[C@@H](CCC(N)=O)C(=O)N[C@@H](CCCCN)C(=O)N[C@@H](Cc4c[nH]c5ccccc45)C(=O)N[C@@H](CCSC)C(=O)N[C@@H](CCCCN)C(=O)N[C@@H]([C@@H](C)O)C(=O)N3)NC2=O)C(=O)N[C@@H](CCCCN)C(=O)N[C@@H](CC(C)C)C(=O)N[C@@H](Cc2c[nH]c3ccccc23)C(=O)N1)[C@@H](C)CC)C(N)=O [compound 75] | > 5 | 0.43 | 5 | 0.31 | 0.08 | – | – | – | – | – | – | – | – |
| CCCC[C@@H]1NC(=O)[C@H](Cc2cn(CCCOCCOCCOCCOCCOCCOCCOCCOCCOCCOCCN)nn2)NC(=O)[C@H](CCCCN)NC(=O)[C@H](CCC(N)=O)NC(=O)[C@@H](NC(=O)[C@@H](N)Cc2ccc(O)cc2)CSSC[C@@H]2NC(=O)[C@@H]3CSSC[C@@H](C(=O)N[C@@H](CCCNC(=N)N)C(=O)N[C@@H](CCCCN)C(=O)N[C@H](C(=O)N[C@H](C(N)=O)[C@@H](C)CC)[C@@H](C)CC)NC(=O)[C@H](Cc4c[nH]c5ccccc45)NC(=O)[C@H](CC(C)C)NC(=O)[C@H](CCCCN)NC(=O)[C@H](CSSC[C@H](NC(=O)[C@H]([C@@H](C)O)NC(=O)[C@H](Cc4c[nH]c5ccccc45)NC1=O)C(=O)N[C@@H](CC(=O)O)C(=O)N[C@@H](CO)C(=O)N[C@@H](CCCCN)C(=O)N[C@@H](CCCNC(=N)N)C(=O)N[C@@H](C)C(=O)N3)NC(=O)[C@H](CCCNC(=N)N)NC(=O)[C@H](CC(C)C)NC(=O)CNC(=O)[C@H](CCC(=O)O)NC2=O [compound 251] | – | – | – | – | – | > 7 | > 7 | > 7 | > 7 | – | – | – | – |
| CC[C@@H]1NC(=O)[C@H](CC(C)C)NC(=O)CNC(=O)[C@H](CCC(=O)O)NC(=O)[C@@H]2CSSC[C@H](NC(=O)[C@@H](N)Cc3ccc(O)cc3)C(=O)N[C@@H](CCC(N)=O)C(=O)N[C@@H](CCCCN)C(=O)N[C@@H](Cc3c[nH]c4ccccc34)C(=O)N[C@@H](CCSC)C(=O)N[C@@H](Cc3c[nH]c4ccccc34)C(=O)N[C@@H]([C@@H](C)O)C(=O)N[C@H]3CSSC[C@H](NC1=O)C(=O)N[C@@H](CCCCN)C(=O)N[C@@H](CC(C)C)C(=O)N[C@@H](Cc1c[nH]c4ccccc14)C(=O)N[C@H](C(=O)N[C@@H](CCCNC(=N)N)C(=O)N[C@@H](CCCCN)C(=O)N[C@H](C(=O)N[C@H](C(N)=O)[C@@H](C)CC)[C@@H](C)CC)CSSC[C@H](NC(=O)[C@H](C)NC(=O)[C@H](CCCNC(=N)N)NC(=O)[C@H](CCCCN)NC(=O)[C@H](CO)NC(=O)[C@H](CC(=O)O)NC3=O)C(=O)N2 [compound 117] | – | – | – | – | 0.05 | – | – | – | – | 10.6 | 0.9 | 0.97 | 19 |
| CC[C@H](C)[C@H](NC(=O)[C@@H](NC(=O)[C@H](CCCCN)NC(=O)[C@H](CCCNC(=N)N)NC(=O)[C@@H]1CSSC[C@@H]2NC(=O)[C@H](C)NC(=O)[C@H](CCCNC(=N)N)NC(=O)[C@H](CCCCN)NC(=O)[C@H](CO)NC(=O)[C@H](CC(=O)O)NC(=O)[C@@H]3CSSC[C@H](NC(=O)[C@H](CCCNC(=N)N)NC(=O)[C@H](CC(C)C)NC(=O)CNC(=O)[C@H](CCC(=O)O)NC(=O)[C@H](CSSC[C@H](NC(=O)[C@@H](N)Cc4ccc(O)cc4)C(=O)N[C@@H](CCC(N)=O)C(=O)N[C@@H](CCCCN)C(=O)N[C@@H](Cc4c[nH]c5ccccc45)C(=O)N[C@@H](CCSC)C(=O)N[C@@H](Cc4c[nH]c5ccccc45)C(=O)N[C@@H]([C@@H](C)O)C(=O)N3)NC2=O)C(=O)N[C@@H](CCCNC(=N)N)C(=O)N[C@@H](CC(C)C)C(=O)N[C@@H](Cc2c[nH]c3ccccc23)C(=O)N1)[C@@H](C)CC)C(N)=O [compound 104] | 2 | 0.17 | 11 | 0.08 | 0.016 | – | – | – | – | – | – | – | – |
| CC[C@H](C)[C@H](NC(=O)[C@@H](NC(=O)[C@H](CCCCN)NC(=O)[C@H](CCCNC(=N)N)NC(=O)[C@@H]1CSSC[C@@H]2NC(=O)[C@H](C)NC(=O)[C@H](CCCNC(=N)N)NC(=O)[C@H](CCCCN)NC(=O)[C@H](CO)NC(=O)[C@H](CC(=O)O)NC(=O)[C@@H]3CSSC[C@H](NC(=O)[C@H](CCCNC(=N)N)NC(=O)[C@H](CC(C)C)NC(=O)CNC(=O)[C@H](C)NC(=O)[C@H](CSSC[C@H](NC(=O)[C@@H](N)Cc4ccc(O)cc4)C(=O)N[C@@H](CCC(N)=O)C(=O)N[C@@H](CCCCN)C(=O)N[C@@H](Cc4c[nH]c5ccccc45)C(=O)N[C@@H](CCSC)C(=O)N[C@@H](Cc4c[nH]c5ccccc45)C(=O)N[C@@H]([C@@H](C)O)C(=O)N3)NC2=O)C(=O)N[C@@H](CCCCN)C(=O)N[C@@H](CC(C)C)C(=O)N[C@@H](Cc2c[nH]c3ccccc23)C(=O)N1)[C@@H](C)CC)C(N)=O [compound 14] | 2 | 0.06 | 8 | 0.08 | 0.008 | – | – | – | – | – | – | – | – |
| CC[C@H](C)[C@H](NC(=O)[C@@H](NC(=O)[C@H](CCCCN)NC(=O)[C@H](CCCNC(=N)N)NC(=O)[C@@H]1CSSC[C@@H]2NC(=O)[C@H](C)NC(=O)[C@H](CCCNC(=N)N)NC(=O)[C@H](CCCCN)NC(=O)[C@H](CO)NC(=O)[C@H](CC(=O)O)NC(=O)[C@@H]3CSSC[C@H](NC(=O)[C@H](CCCCN)NC(=O)[C@H](CC(C)C)NC(=O)CNC(=O)[C@H](CCC(=O)O)NC(=O)[C@H](CSSC[C@H](NC(=O)[C@@H](N)Cc4ccc(O)cc4)C(=O)N[C@@H](CCC(N)=O)C(=O)N[C@@H](CCCCN)C(=O)N[C@@H](Cc4c[nH]c5ccccc45)C(=O)N[C@@H](CCSC)C(=O)N[C@@H](Cc4c[nH]c5ccccc45)C(=O)N[C@@H]([C@@H](C)O)C(=O)N3)NC2=O)C(=O)N[C@@H](CCCCN)C(=O)N[C@@H](CC(C)C)C(=O)N[C@@H](Cc2c[nH]c3ccccc23)C(=O)N1)[C@@H](C)CC)C(N)=O [compound 84] | 3.4 | 0.26 | 13 | 0.06 | 0.02 | – | – | – | – | – | – | – | – |

— patent US10344060B2 (priority 2013, dated 2019)
